# Reference: patent publication US20250275967A1, “FREEZE DRIED COMPOSITIONS” (Janssen Sciences Ireland Unlimited Company, priority 2022, published 2025)
# Experiment: rilpivirine particle size by wet dispersion laser diffraction
# Format: physicochemical
# Settings: rilpivirine nanoparticles used for the aqueous compositions of Example 5
# Protocol: The compositions were freeze dried and reconstituted with water to provide 9 mL of the reconstituted aqueous composition at time t=0, freeze dried and reconstituted with water to provide 9 mL of the reconstituted aqueous composition after being stored under conditions of 25° C./60% RH and 40° C./75% RH for 1 month, and freeze dried and reconstituted with water to provide 9 mL of the reconstituted aqueous composition after being stored under conditions of 25° C./60% RH for 6 months. The rilpivirine particle sizes were measured in both instances following the method below.
# The volume-based particle size distribution of the rilpivirine suspensions was determined by means of wet dispersion laser diffraction, using a Malvern Mastersizer 3000 laser diffraction (Malvern Instruments) and Hydro MV wet dispersion module.
smiles,measurement,value
"Cc1cc(/C=C/C#N)cc(C)c1Nc1ccnc(Nc2ccc(C#N)cc2)n1 [rilpivirine nanoparticles, 4-[[4-[[4-[(1E)-2-cyanoethenyl]-2,6-dimethylphenyl]amino]-2-pyrimidinyl]amino]-benzonitrile]",Dv10,about 96.5 nm
same,Dv50,about 224 nm
same,Dv90,about 509 nm
